Measured values published in ChEMBL document CHEMBL1129429, “Structure-activity relationships for the binding of arylpiperazines and arylbiguanides at 5-HT3 serotonin receptors” (J Med Chem, 1996).

Experiments:
Oryctolagus cuniculus = species: Oryctolagus cuniculus; test: Minimal effective dose for its 5-HT3 -Stimulant potency in rabbit bladder preparation.; format: functional
Rattus norvegicus [1] = species: Rattus norvegicus; test: Compound tested for its 5-HT3 -Stimulant potency in rat relative to compound 6 ( Value = 1); format: functional
[2] = biological target: Serotonin 3 (5-HT3) receptor; test: Compound was tested for the inhibition of [3H]GR-65630 binding to 5-hydroxytryptamine 3 receptor expressed in NG 108-15 cells; format: cell-based
Rattus norvegicus [3] = species: Rattus norvegicus; test: Compound tested for its 5-HT3 -Stimulant potency in rat relative to compound 6 ( Value = 1); range 0.3-0.6; format: functional
Rattus norvegicus [4] = species: Rattus norvegicus; test: Compound tested for its 5-HT3 -Stimulant potency in rat relative to compound 6 ( Value = 1); Range 0.5-1.3; format: functional

With `N=C(N)NC(=N)Nc1ccc2ccccc2c1` the Min effective dose (Oryctolagus cuniculus) was 0.01 mg/kg, the Relative potency (Rattus norvegicus [1]) was 0.5 and the Ki ([2]; read-out: Ki) was 0.012 µM.

With `COc1ccc(Cl)cc1/N=C(\N)N=C(N)N` the Ki ([2]; read-out: Ki) was 0.126 µM.

For `c1ccc(C2CCNCC2)cc1`, the Ki ([2]; read-out: Ki) was over 10 µM.

With `COc1cccc(NC(=N)N)c1` the Ki ([2]; read-out: Ki) was 1.6 µM.

`NC(N)=Nc1ccc2ccccc2c1` gave a Min effective dose (Oryctolagus cuniculus) of 0.015 mg/kg, a Relative potency (Rattus norvegicus [1]) of 1 and a Ki ([2]; read-out: Ki) of 0.025 µM.

Work on `Cc1cccc(NC(=N)N)c1` yielded a Ki ([2]; read-out: Ki) of 6.52 µM.

Compound `N=C(N)NCc1cccc(Cl)c1` has a Ki ([2]; read-out: Ki) of 1.2 µM.

For `c1ccc2cc(N3CCNCC3)ccc2c1`, the Min effective dose (Oryctolagus cuniculus) was 0.03 mg/kg, the Relative potency (Rattus norvegicus [1]) was under 0.02 and the Ki ([2]; read-out: Ki) was 0.032 µM.

For `CN(C)C(=N)N=C(N)Nc1cccc(Cl)c1`, the Ki ([2]; read-out: Ki) was over 10 µM.

For `N=C(N)Nc1ccccn1`, the Ki ([2]; read-out: Ki) was over 10 µM.

`N=C(N)NC(=O)Nc1cccc(Cl)c1` gave a Ki ([2]; read-out: Ki) of 1.25 µM.

With `N=C(N)Cc1cccc(Cl)c1` the Ki ([2]; read-out: Ki) was 1.2 µM.

`c1ccc2c(N3CCNCC3)cccc2c1` showed a Ki ([2]; read-out: Ki) of 0.175 µM.

With `N=C(N)Nc1ccccc1` [PHENYLGUANIDINE] the Ki ([2]; read-out: Ki) was 2.34 µM.

In the case of `NC(=O)Nc1cccc(Cl)c1`, the Ki ([2]; read-out: Ki) is reported as over 10 µM.

In the case of `Clc1cccc(N2CCNCC2)n1`, the Ki ([2]; read-out: Ki) is reported as 0.015 µM.

Compound `COc1ccccc1C1(O)CCNCC1` has a Ki ([2]; read-out: Ki) of over 10 µM.

With `c1ccc(N2CCNCC2)cc1` [PHENYLPIPERAZINE] the Ki ([2]; read-out: Ki) was 3 µM.

For `NCCCCc1cccc(Cl)c1`, the Ki ([2]; read-out: Ki) was over 10 µM.

Compound `NC=Nc1cccc(Cl)c1` has a Ki ([2]; read-out: Ki) of over 10 µM.

For `C[N+]1(C)CCN(c2cccc(C(F)(F)F)c2)CC1`, the Ki ([2]; read-out: Ki) was over 10 µM.

Compound `Clc1cccc(CC2=NCCN2)c1` has a Ki ([2]; read-out: Ki) of over 10 µM.

In the case of `CN1CCN(c2ccc3ccccc3n2)CC1`, the Ki [2] is reported as 0.003 µM.

In the case of `NCCCc1cccc(Cl)c1`, the Ki ([2]; read-out: Ki) is reported as over 10 µM.

`Cc1ccc(NC(N)=NC(=N)N)cc1Cl` was tested, and the Ki ([2]; read-out: Ki) was 0.225 µM.

`N=C(N)NC(=N)Nc1ccc(Cl)cc1` [4-CHLOROPHENYLBIGUANIDE] was tested, and the Ki ([2]; read-out: Ki) was 0.2 µM.

`N=C(N)Nc1cccnc1` [PYRAXININE] gave a Ki ([2]; read-out: Ki) of 2.91 µM.

`Cc1ccc(NC(=N)N=C(N)N)cc1` showed a Ki ([2]; read-out: Ki) of over 10 µM.

`N=C(N)NCCc1ccc(Cl)cc1` gave a Ki ([2]; read-out: Ki) of 0.243 µM.

Compound `COc1ccc(N2CCNCC2)c(OC)c1` has a Ki ([2]; read-out: Ki) of over 10 µM.

Compound `N=C(N)NCCc1ccccc1Cl` has a Ki ([2]; read-out: Ki) of 0.15 µM.

`NCCC(=O)Nc1cccc(Cl)c1` gave a Ki ([2]; read-out: Ki) of over 10 µM.

For `Clc1ccc(N2CCNCC2)cc1`, the Ki ([2]; read-out: Ki) was 2.16 µM.

With `CN(C)CCc1cccc(Cl)c1` the Ki ([2]; read-out: Ki) was over 10 µM.

Work on `C[N+]1(C)CCN(c2cccc(Cl)c2)CC1` yielded a Ki ([2]; read-out: Ki) of 1.45 µM.

Work on `FC(F)(F)c1cccc(N2CCNCC2)c1` yielded a Ki ([2]; read-out: Ki) of 1.39 µM.

`CNCCc1cccc(Cl)c1` was tested, and the Ki ([2]; read-out: Ki) was over 10 µM.

In the case of `N=C(N)NC(=N)Nc1cccc(Cl)c1`, the Min effective dose (Oryctolagus cuniculus) is reported as 0.0066 mg/kg, the Relative potency (Rattus norvegicus [1]) is reported as 1 and the Ki ([2]; read-out: Ki) is reported as 0.017 µM.

`N=C(N)/N=C(\N)Nc1cccc([N+](=O)[O-])c1` was tested, and the Ki ([2]; read-out: Ki) was 0.22 µM.

`N=C(N)NC(=N)Nc1ccccc1Cl` showed a Ki ([2]; read-out: Ki) of 0.062 µM.

`COc1ccc(N2CCNCC2)c(C)c1` gave a Ki ([2]; read-out: Ki) of 0.66 µM.

With `NCCNC(=O)c1cccc(Cl)c1` the Ki ([2]; read-out: Ki) was over 10 µM.

In the case of `N=C(N)NC(=N)Nc1ccccc1` [PHENYL BIGUANIDE], the Relative potency (Rattus norvegicus [3]) is reported as 0.45, the Min effective dose (Oryctolagus cuniculus) is reported as 0.01 mg/kg and the Ki ([2]; read-out: Ki) is reported as 1.2 µM.

`Cc1cccc(NC(N)=NC(=N)N)c1` was tested, and the Ki ([2]; read-out: Ki) was 0.78 µM.

With `N=C(N)NCCc1cccc(Cl)c1` the Ki ([2]; read-out: Ki) was 0.04 µM.

Work on `N=C(N)Nc1ccc(Cl)cc1` yielded a Ki ([2]; read-out: Ki) of 0.32 µM.

For `COc1ccc(Cl)cc1N1CCNCC1`, the Ki ([2]; read-out: Ki) was 0.04 µM.

`NC(N)=Nc1cccc(Cl)c1` gave a Min effective dose (Oryctolagus cuniculus) of 0.15 mg/kg, a Relative potency (Rattus norvegicus [4]) of 0.74 and a Ki ([2]; read-out: Ki) of 0.035 µM.

In the case of `NC(N)=Nc1cccc(C(F)(F)F)c1`, the Ki ([2]; read-out: Ki) is reported as 5.7 µM.

In the case of `c1ccc2nc(N3CCCCC3)ccc2c1`, the Ki ([2]; read-out: Ki) is reported as over 10 µM.

Work on `NCCc1cccc(Cl)c1` yielded a Ki ([2]; read-out: Ki) of over 10 µM.

In the case of `NCCCNc1cccc(Cl)c1`, the Ki ([2]; read-out: Ki) is reported as over 10 µM.

`Cc1cccc(N2CCN(C)CC2)n1` was tested, and the Ki ([2]; read-out: Ki) was 0.56 µM.

In the case of `COc1ccccc1N1CCNCC1`, the Ki ([2]; read-out: Ki) is reported as 2.5 µM.

`Clc1cccc(N2CCNCC2)c1` [CHLOROPHENYLPIPERAZINE] showed a Relative potency (Rattus norvegicus [1]) of under 0.02 and a Ki ([2]; read-out: Ki) of 0.062 µM.

With `COc1ccc(N2CCNCC2)cc1` the Ki ([2]; read-out: Ki) was 1.64 µM.

`NC(N)=Nc1ccccc1Cl` gave a Ki ([2]; read-out: Ki) of 0.19 µM.
